# Reference: the supplement of paper PMC4862054
# Where “and” joins values, the source holds several entries; their conditions need not be identical. Equal values may be shown once.
# What was measured:
# Assay in all cases: normalised viability (% of control), CellTiter-Blue; higher = more viable cells (about 100 = DMSO control)
# Conditions in all cases: incubation time: 72 h
# DU-4475 [1] = test system: DU-4475
# Description: (§1)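 DSRT, CellTiter-Blue viability, 72 h incubation. Signal is normalised to DMSO and benzethonium chloride controls. Value is the normalised response at dose 8.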
# CAL-51 [2] = test system: CAL-51
# Description: as §1
# MDA-MB-453 [3] = test system: MDA-MB-453
# Description: as §1
# HDQ-P1 [4] = test system: HDQ-P1
# Description: as §1
# CAL-85-1 [5] = test system: CAL-85-1
# Description: as §1
# CAL-148 [6] = test system: CAL-148
# Description: as §1
# DU-4475 [7] = test system: DU-4475; remark: listed apart in the source
# Description: (§2)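 DSRT, CellTiter-Blue viability, 72 h incubation. Signal is normalised to DMSO and benzethonium chloride controls. Value is the normalised response at dose 7.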
# CAL-51 [8] = test system: CAL-51; remark: listed apart in the source
# Description: as §2
# MDA-MB-453 [9] = test system: MDA-MB-453; remark: listed apart in the source
# Description: as §2
# HDQ-P1 [10] = test system: HDQ-P1; remark: listed apart in the source
# Description: as §2
# CAL-85-1 [11] = test system: CAL-85-1; remark: listed apart in the source
# Description: as §2
# CAL-148 [12] = test system: CAL-148; remark: listed apart in the source
# Description: as §2
# DU-4475 [13] = test system: DU-4475; remark: listed apart in the source
# Description: (§3)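 DSRT, CellTiter-Blue viability, 72 h incubation. Signal is normalised to DMSO and benzethonium chloride controls. Value is the normalised response at dose 6.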
# CAL-51 [14] = test system: CAL-51; remark: listed apart in the source
# Description: as §3
# MDA-MB-453 [15] = test system: MDA-MB-453; remark: listed apart in the source
# Description: as §3
# HDQ-P1 [16] = test system: HDQ-P1; remark: listed apart in the source
# Description: as §3
# CAL-85-1 [17] = test system: CAL-85-1; remark: listed apart in the source
# Description: as §3
# CAL-148 [18] = test system: CAL-148; remark: listed apart in the source
# Description: as §3
SMILES,normalised viability (DU-4475 [1]),normalised viability (CAL-51 [2]),normalised viability (MDA-MB-453 [3]),normalised viability (HDQ-P1 [4]),normalised viability (CAL-85-1 [5]),normalised viability (CAL-148 [6]),normalised viability (DU-4475 [13]),normalised viability (CAL-51 [14]),normalised viability (MDA-MB-453 [15]),normalised viability (HDQ-P1 [16]),normalised viability (CAL-85-1 [17]),normalised viability (CAL-148 [18]),further results
CC[C@@]1(O)C(=O)OCc2c1cc1n(c2=O)Cc2cc3c(CN(C)C)c(O)ccc3nc2-1 [Topotecan] (300 nM),47.5%,66.2%,69.3%,87.8%,66.9%,31.4%,,,,,,,
Cc1cccc(-c2nn3c(c2-c2ccnc4ccc(C(N)=O)cc24)CCC3)n1 (100 nM),,,,,,,,,,,,,normalised viability (DU-4475 [7]): 108%; normalised viability (CAL-51 [8]): 97.6%; normalised viability (MDA-MB-453 [9]): 93.4%; normalised viability (HDQ-P1 [10]): 120%; normalised viability (CAL-85-1 [11]): 89.5%; normalised viability (CAL-148 [12]): 104%
CCN(CC)CCNC(=O)c1c(C)[nH]c(/C=C2\C(=O)Nc3ccc(F)cc32)c1C [Sunitinib] (30 nM),,,,,,,84.4% and 92.7%,111% and 91.1%,93.3% and 81.3%,74.4% and 92.3%,96.7% and 96.2%,99.5% and 101%,
O=C(Nc1c[nH]nc1-c1nc2ccc(CN3CCOCC3)cc2[nH]1)NC1CC1 [AT9283] (3000 nM),0.96%,25.5%,26.9%,25.9%,16.8%,67.2%,,,,,,,
Cc1ccc(Nc2nccc(N(C)c3ccc4c(C)n(C)nc4c3)n2)cc1S(N)(=O)=O [Pazopanib] (300 nM),,,,,,,102%,95.6%,88.4%,64%,96.1%,85.7%,
COc1ccc(-c2cc3c(C)nc(N)nc3n([C@H]3CC[C@H](OCCO)CC3)c2=O)cn1 (3000 nM),6.45%,2.65%,3.88%,10.7%,10.4%,6.69%,,,,,,,
O=S(=O)(c1cccc2cnccc12)N1CCCNCC1 [Fasudil] (300 nM),,,,,,,117%,107%,106%,90.9%,97.2%,83.7%,
O=S(=O)(c1cccc2cnccc12)N1CCCNCC1 [Fasudil] (3000 nM),113%,118%,99.4%,121%,101%,81.2%,,,,,,,
CNC(=O)c1cc(Oc2ccc(NC(=O)Nc3ccc(Cl)c(C(F)(F)F)c3)cc2)ccn1 [Sorafenib] (30 nM),,,,,,,101% and 115%,108% and 101%,106% and 99.1%,81.1% and 72.2%,97.6% and 103%,109% and 91.4%,
Cn1cc(CNCC2CCN(c3ncc(C(=O)NO)cn3)CC2)c2ccccc21 (30 nM),,,,,,,29.3%,70.1%,4.37%,37.5%,38.9%,24.2%,
Nc1nc(=O)c2c([nH]1)NCC(CNc1ccc(C(=O)N[C@@H](CCC(=O)O)C(=O)O)cc1)N2C=O (mixture of isomers) [Folinic acid] (99 nM),,,,,,,,,,,,,normalised viability (DU-4475 [7]): 104%; normalised viability (CAL-51 [8]): 93%; normalised viability (MDA-MB-453 [9]): 103%; normalised viability (HDQ-P1 [10]): 134%; normalised viability (CAL-85-1 [11]): 87.2%; normalised viability (CAL-148 [12]): 97.8%
C[C@]12O[C@H](C[C@]1(O)CO)n1c3ccccc3c3c4c(c5c6ccccc6n2c5c31)CNC4=O [Lestaurtinib] (30 nM),,,,,,,91.3%,111%,105%,84.5%,114%,107%,
COc1nc(N)nc2c1ncn2[C@@H]1O[C@H](CO)[C@@H](O)[C@@H]1O [Nelarabine] (300 nM),,,,,,,113% and 116%,101% and 97.9%,102% and 99.1%,,100% and 97.8%,88.9% and 89.2%,
C[C@]12O[C@H](C[C@]1(O)CO)n1c3ccccc3c3c4c(c5c6ccccc6n2c5c31)CNC4=O [Lestaurtinib] (300 nM),26.7%,76.5%,50.2%,92.4%,65%,75.9%,,,,,,,
COc1nc(N)nc2c1ncn2[C@@H]1O[C@H](CO)[C@@H](O)[C@@H]1O [Nelarabine] (3000 nM),121% and 112%,102% and 97.6%,86.7% and 106%,74.7% and 87.7%,94.5% and 98%,90.6% and 84.7%,,,,,,,
Cc1ccc(Nc2nccc(N(C)c3ccc4c(C)n(C)nc4c3)n2)cc1S(N)(=O)=O [Pazopanib] (3000 nM),110%,87.6%,42.5%,77.9%,96%,67.7%,,,,,,,
Cn1cc(CNCC2CCN(c3ncc(C(=O)NO)cn3)CC2)c2ccccc21 (100 nM),,,,,,,,,,,,,normalised viability (DU-4475 [7]): 12.3%; normalised viability (CAL-51 [8]): 36.7%; normalised viability (MDA-MB-453 [9]): 2.32%; normalised viability (HDQ-P1 [10]): 33.5%; normalised viability (CAL-85-1 [11]): 16.6%; normalised viability (CAL-148 [12]): 3.75%
O=C1c2c(O)ccc(O)c2C(=O)c2c(NCCNCCO)ccc(NCCNCCO)c21 [Mitoxantrone] (30 nM),,,,,,,21.7%,42.9%,98%,63.9%,73.1%,56.1%,
CS(=O)(=O)N1CCN(Cc2cc3nc(-c4cccc5[nH]ncc45)nc(N4CCOCC4)c3s2)CC1 [GDC-0941] (300 nM),,,,,,,83.2%,61%,43.4%,37.6%,73.2%,83.5%,
CCC/C=C/C=C/C(=O)O[C@H]1/C(=C/C(=O)OC)C[C@H]2C[C@H]([C@@H](C)O)OC(=O)C[C@H](O)C[C@@H]3C[C@H](OC(C)=O)C(C)(C)[C@](O)(C[C@@H]4C/C(=C/C(=O)OC)C[C@H](/C=C/C(C)(C)[C@]1(O)O2)O4)O3 [Bryostatin 1] (3 nM),,,,,,,88.7%,98.7%,85.9%,78.6%,110%,85.5%,
